# In patent US9150548B2, “Combinations of AKT inhibitor compounds and vemurafenib, and methods of use” (Genentech, Inc., priority 2011, dated 2015):
# Assays:
# [1] = system: LuCap35V primary human prostate tumor model; assay: In vivo tumor xenograft efficacy, LuCap35V (FIG. 1); design: species or system mice
# From the text: FIG. 1 illustrates results for the compound of Example 2 and docetaxel in LuCap35V primary prostate tumors. FIG. 2 illustrates results for the compound of Example 2 dosed intermittently either PO or IP and docetaxel in PC3-NCI prostate tumors. FIG. 3 illustrates results for the compound of Example 2 dosed PO and docetaxel in PC3-NCI prostate tumors. FIG. 4 illustrates results for the compound of Example 2 dosed IP intermittently and docetaxel in MCF7-neo/HER2 tumors. FIG. 5 illustrates results for the compound of Example 2 dosed PO and docetaxel in MCF7-neo/HER2 breast tumors. FIG. 6 illustrates results for the compound of Example 2 and docetaxel in MAXF401 mammary tumors. FIG. 7 illustrates results for the compound of Example 2 and docetaxel in SKOV3 ovarian tumors. FIG. 8 illustrates results for the compound of Example 2 and cisplatnin in SKOV3 ovarian tumors. FIG. 9 illustrates results for the compound of Example 2 dosed PO and carboplatin in IGROV-1 ovarian tumors. FIG. 10 illustrates results for the compound of Example 2 and GDC-0973 at 2.5 mg/kg in H2122 NCI-NSCL tumors. FIG. 11 illustrates results for the compound of Example 2 and GDC-0973 at 5.0 mg/kg in NCI-H2122 NSCLC tumors. FIG. 12 illustrates results for the compound of Example 2 and GDC-0973 at 7.5 mg/kg in NCI-H2122 NSCLC tumors. FIG. 13 illustrates results for the compound of Example 2 and MDV3100 in LuCap35V tumors.
# PTEN null line = assay: CellTiter-Glo combination assay with docetaxel (FIG. 19); type: cell-based
# From the text: Viable cells are reflected in relative luminescence units (RLU).
# [2] = system: prostate specific antigen serum levels; conditions: after a month of taking the medicine; cited from earlier work
# [3] = active metabolite vs irinotecan itself; cited from earlier work
structure (smiles),measurement,setting,value
"CC(=O)O[C@@]12CO[C@@H]1C[C@H](O)[C@@]1(C)C(=O)[C@H](O)C3=C(C)[C@@H](OC(=O)[C@H](O)[C@@H](NC(=O)OC(C)(C)C)c4ccccc4)C[C@@](O)([C@@H](OC(=O)c4ccccc4)[C@H]21)C3(C)C [docetaxel, (2R,3S)—N-carboxy-3-phenylisoserine, N-tert-butyl ester, 13-ester with 5, 20-epoxy-1,2,4,7,10,13-hexahydroxytax-11-en-9-one 4-acetate 2-benzoate, trihydrate]",tumor response (FIG. 1),[1],tumor stasis
"CC(C)NC[C@@H](C(=O)N1CCN(c2ncnc3c2[C@H](C)C[C@H]3O)CC1)c1ccc(Cl)cc1 [Example 2, (S)-2-(4-chlorophenyl)-1-(4-((5R,7R)-7-hydroxy-5-methyl-6,7-dihydro-5H-cyclopenta[d]pyrimidin-4-yl)piperazin-1-yl)-3-(isopropylamino)propan-1-one]",tumor response (FIG. 1),[1],tumor stasis
same,single agent response,PTEN null line,minimal single agent response
"CNC(=O)c1ccc(N2C(=S)N(c3ccc(C#N)c(C(F)(F)F)c3)C(=O)C2(C)C)cc1F [MDV3100, 4-(3-(4-cyano-3-(trifluoromethyl)phenyl)-5,5-dimethyl-4-oxo-2-thioxoimidazolidin-1-yl)-2-fluoro-N-methylbenzamide]",decrease in prostate specific antigen serum levels,[2],≤ 89%
"CCc1c2c(nc3ccc(O)cc13)-c1cc3c(c(=O)n1C2)COC(=O)[C@]3(O)CC [SN-38, 7-ethyl-10-hydroxy-camptothecin]",activity relative to irinotecan,[3],200 times
